± gives the standard deviation of the averaged measurements.
Tested on: MES-SA
Assay: relative viability vs DMSO control (72 h) (fraction); higher = more viable cells
Outline: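 Densities for seeding sarcoma cell lines into 384-well plates were set to give 80–90% confluence. After 24 h, 2.5 µl of serially diluted compound from source plates of 10 mM to 0.0002 mM went in, and plates stayed 72 h at 37 °C in 5% CO2 with 0.1% DMSO vehicle and a 5 µM positive control. Percent growth from ATPLite readings, averaged over up to triplicate wells, served as relative viability, rescaled so 1 means full and 0 means none.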

SMILES | relative viability (0.00017 µM) | relative viability (0.00051 µM) | relative viability (0.00152 µM) | relative viability (0.00457 µM) | relative viability (0.01372 µM) | relative viability (0.04115 µM) | relative viability (0.1235 µM) | relative viability (0.3704 µM) | relative viability (1.111 µM) | relative viability (3.333 µM) | relative viability (10 µM)
C=CC(=O)N1CCC[C@@H](n2nc(-c3ccc(Oc4ccccc4)cc3)c3c(N)ncnc32)C1 [Ibrutinib] | 1 ± 0.018 | 0.977 ± 0.021 | 0.955 ± 0.041 | 0.947 ± 0.029 | 0.966 ± 0.026 | 0.964 ± 0.026 | 0.931 ± 0.03 | 0.864 ± 0.011 | 0.866 ± 0.045 | 0.88 ± 0.022 | 0.6991 ± 0.0047
CC[C@H](Nc1ncnc2[nH]cnc12)c1nc2cccc(F)c2c(=O)n1-c1ccccc1 [Idelalisib] | 1.01 ± 0.021 | 1 ± 0.034 | 0.993 ± 0.03 | 0.964 ± 0.015 | 0.971 ± 0.038 | 0.972 ± 0.036 | 0.986 ± 0.022 | 0.937 ± 0.016 | 0.889 ± 0.031 | 0.867 ± 0.029 | 0.711 ± 0.023
O=C(Cc1ccc(-c2ccc(OCCN3CCOCC3)cc2)cn1)NCc1ccccc1 [KX2-391] | 0.988 ± 0.041 | 0.976 ± 0.018 | 0.946 ± 0.018 | 0.949 ± 0.026 | 0.9439 ± 0.0022 | 0.448 ± 0.042 | 0.2711 ± 0.0024 | 0.179 ± 0.0046 | 0.143 ± 0.0031 | 0.133 ± 0.004 | 0.13 ± 0.0027
O=C(Nc1cnn2ccc(N3CCC[C@@H]3c3cc(F)ccc3F)nc12)N1CC[C@H](O)C1 [Larotrectinib] | 0.929 ± 0.024 | 0.932 ± 0.046 | 0.923 ± 0.054 | 0.896 ± 0.056 | 0.931 ± 0.022 | 0.929 ± 0.039 | 0.894 ± 0.073 | 0.897 ± 0.022 | 0.916 ± 0.027 | 0.893 ± 0.048 | 0.877 ± 0.015
Cc1ccc(F)c(NC(=O)Nc2ccc(-c3cccc4[nH]nc(N)c34)cc2)c1 [Linifanib] | 0.979 ± 0.013 | 0.968 ± 0.02 | 0.942 ± 0.014 | 0.956 ± 0.035 | 0.974 ± 0.01 | 0.971 ± 0.015 | 0.969 ± 0.011 | 0.918 ± 0.033 | 0.935 ± 0.01 | 0.75 ± 0.21 | 0.933 ± 0.014
C[C@]1(O)C[C@@H](c2nc(-c3ccc4ccc(-c5ccccc5)nc4c3)c3c(N)nccn32)C1 [Linsitinib] | 0.983 ± 0.02 | 0.958 ± 0.021 | 0.9582 ± 0.0041 | 0.926 ± 0.015 | 0.962 ± 0.015 | 0.943 ± 0.025 | 0.958 ± 0.035 | 0.898 ± 0.024 | 0.887 ± 0.01 | 0.784 ± 0.0085 | 0.63 ± 0.023
Cc1ccc(NC(=O)c2ccc(CN3CCN(C)CC3)cc2)cc1Nc1nc(-c2cccnc2)cs1 [Masitinib] | 0.978 ± 0.013 | 0.969 ± 0.014 | 0.955 ± 0.021 | 0.96 ± 0.028 | 0.952 ± 0.011 | 0.956 ± 0.015 | 0.912 ± 0.025 | 0.905 ± 0.026 | 0.735 ± 0.029 | 0.445 ± 0.017 | 0.11 ± 0.011
CC1(C)CNc2cc(NC(=O)c3cccnc3NCc3ccncc3)ccc21 [Motesanib] | 0.93 ± 0.044 | 0.946 ± 0.034 | 0.962 ± 0.01 | 0.937 ± 0.023 | 0.949 ± 0.061 | 0.947 ± 0.047 | 0.961 ± 0.02 | 1 ± 0.044 | 0.96 ± 0.035 | 0.948 ± 0.013 | 0.849 ± 0.041
CC(C)N1CCN(Cc2cnc(-c3cc(-c4cccc5[nH]ccc45)cc4[nH]ncc34)o2)CC1 [Nemiralisib] | 0.967 ± 0.032 | 0.961 ± 0.022 | 0.953 ± 0.05 | 0.958 ± 0.05 | 0.977 ± 0.033 | 0.926 ± 0.039 | 0.979 ± 0.047 | 0.964 ± 0.043 | 0.911 ± 0.024 | 0.764 ± 0.028 | 0.486 ± 0.027
C=CC(=O)Nc1cccc(Oc2nc(Nc3ccc(N4CCN(C)CC4)cc3)nc3ccsc23)c1 [Olmutinib] | 0.931 ± 0.038 | 0.964 ± 0.027 | 0.916 ± 0.037 | 0.937 ± 0.055 | 0.918 ± 0.036 | 0.955 ± 0.045 | 0.968 ± 0.035 | 0.954 ± 0.012 | 0.9273 ± 0.0055 | 0.751 ± 0.029 | 0.448 ± 0.025
CC(C)(C)c1cc(NC(=O)Nc2ccc(-c3cn4c(n3)sc3cc(OCCN5CCOCC5)ccc34)cc2)no1 [Quizartinib] | 0.944 ± 0.012 | 0.974 ± 0.019 | 0.94 ± 0.015 | 0.935 ± 0.046 | 0.937 ± 0.023 | 0.931 ± 0.016 | 0.953 ± 0.025 | 0.933 ± 0.031 | 0.823 ± 0.017 | 0.602 ± 0.041 | 0.577 ± 0.025
CNC(=O)c1cc(Oc2ccc(NC(=O)Nc3ccc(Cl)c(C(F)(F)F)c3)c(F)c2)ccn1 [Regorafenib] | 0.973 ± 0.026 | 0.9876 ± 0.0026 | 0.972 ± 0.037 | 0.955 ± 0.036 | 0.968 ± 0.022 | 0.96 ± 0.03 | 0.997 ± 0.067 | 0.965 ± 0.045 | 0.923 ± 0.064 | 0.735 ± 0.038 | 0.246 ± 0.01
CO[C@H]1C[C@@H]2CC[C@@H](C)[C@@](O)(O2)C(=O)C(=O)N2CCCC[C@H]2C(=O)O[C@H]([C@H](C)C[C@@H]2CC[C@@H](OP(C)(C)=O)[C@H](OC)C2)CC(=O)[C@H](C)/C=C(\C)[C@@H](O)[C@@H](OC)C(=O)[C@H](C)C[C@H](C)/C=C/C=C/C=C/1C [Ridaforolimus] | 0.888 ± 0.04 | 0.827 ± 0.055 | 0.599 ± 0.0079 | 0.489 ± 0.015 | 0.423 ± 0.021 | 0.403 ± 0.024 | 0.4 ± 0.0088 | 0.368 ± 0.027 | 0.376 ± 0.0059 | 0.367 ± 0.023 | 0.374 ± 0.024
COCc1c(-c2cc3cc(C)cc(OC)c3s2)c2c(N)ncnn2c1CN1CCNC(=O)C1 [Rogaratinib] | 0.974 ± 0.012 | 0.9554 ± 0.0066 | 0.943 ± 0.014 | 0.929 ± 0.014 | 0.939 ± 0.025 | 0.949 ± 0.046 | 0.849 ± 0.018 | 0.732 ± 0.02 | 0.664 ± 0.035 | 0.565 ± 0.012 | 0.389 ± 0.019

Reference: the supplement of paper PMC10883282
